# Experimental data from US9561215B2, “BAX-activating cancer therapeutics” (The University of Louisville Research Foundation Inc., priority 2014, dated 2017).
# Tests used:
# [1] = tested on: anti-apoptotic Bcl-2 proteins, including Bcl-2, Bcl-xL, and Bcl-w; details: cited from earlier work
# [2] = tested on: Bak^−/−Bax^−/− MEF cells stably re-expressing Bax, Bak, or the empty vector; assay: Cell death by propidium iodide exclusion in MEF cells re-expressing Bax or Bak; format: cell-based; details: for rank by activity to induce Bax-dependent apoptosis: rank among the six Bax activator compounds
# Method: (§1) Cell lines: Bak^−/−Bax^−/− murine embryonic fibroblast (MEF) cells expressing the empty vector, Bak or Bax were cultured as described previously. Human non-small cell lung carcinoma A549 and human pancreatic carcinoma Panc-1 were purchased from ATCC (Manassas, Va.). Untransformed and transformed MEF cells were kindly provided by Dr. Wei-Xing Zong. Bax^+/− and Bax^−/− HCT116 cells were obtained from Drs. Bert Vogelstein and Kenneth Kinzler. All cells were cultured at 37° C. in a 5% CO2 incubator as described previously (42). To generate A549 cells with reduced Bax expression or vector control, cells were first infected by Bax shRNA lentiviral particles or control shRNA lentiviral particles (Santa Cruz). Stable cells were obtained by culturing cells in the medium with 10 μg/ml puromycin.
# (§2) Cell death analysis and Chou-Talalay synergism assay: Cell viability was measured by propidium iodide exclusion using flow cytometry (FACSCalibur, Becton Dickinson) as described previously. The synergistic effect between compound 106 and carboplatin or ABT-737 on cell viability was determined by Chou-Talalay median dose effect assay. IC50 of compound 106, carboplatin, and ABT-7373 on a tumor cell line was first determined. Different combinations of drugs at a fixed ratio higher or lower than their IC50 values were added to cells. After incubation for the indicated time, cell viability was examined and Fa was calculated as the ratio between the cell death levels of drug-treated cells and those of untreated control cells. Combination index (CI) was determined by the CompuSyn software (Biosoft, Cambridge, UK).
# The inventors tested candidate agents by first determining whether cytotoxicity was dependent on Bax but not on Bak. Bax^−/−Bak^−/− murine embryonic fibroblast (MEF) cell lines stably re-expressing only Bax or Bak were established (FIG. 3).
# [3] = tested on: Bax^+/− and Bax^−/− HCT116 cells; assay: Cell death in HCT116 cells with or without Bax expression; format: cell-based, human; details: 48 hour incubation
# Method: as §1
# as §2, with “The synergistic effect between compound 106 and carboplatin or ABT-737 on cell viability was determined by Chou-Talalay median dose effect assay.” left out, “Different combinations of drugs at a fixed ratio higher or lower than their IC50 values were added to cells.” left out, “UK). […]” for “UK).”
# [4] = tested on: A549 cells with Bax shRNA or control shRNA vector; assay: Cell death in A549 cells with reduced Bax expression or control shRNA; format: cell-based, human; details: 48 hour incubation
# Method: as §1
# as §2, with “The synergistic effect between compound 106 and carboplatin or ABT-737 on cell viability was determined by Chou-Talalay median dose effect assay.” left out, “Different combinations of drugs at a fixed ratio higher or lower than their IC50 values were added to cells.” left out, “UK). […]” for “UK).”
# [5] = tested on: PANC-1 cells; assay: Chou-Talalay synergism assay in PANC-1 cells; format: cell-based, human; details: compound 106 (3.3-240 μM) with carboplatin (3.3-240 μM), constant ratio, 48 hours
# Method: as §2, with “The synergistic effect between compound 106 and carboplatin or ABT-737 on cell viability was determined by Chou-Talalay median dose effect assay.” left out, “Different combinations of drugs at a fixed ratio higher or lower than their IC50 values were added to cells.” left out
# (§3) To explore the potential of compound 106 functioning in combination chemotherapy, the inventors investigated whether compound 106 sensitizes tumor cells to die following simultaneous treatment with a chemotherapeutic drug. Carboplatin is currently used to treat non-small-cell lung cancer and human pancreatic cancer. To investigate whether the cytotoxic effects of compound 106 and carboplatin on human tumor cells were synergistic, the inventors carried out median-effect analysis using the Chou-Talalay method. After 48 hours of treatment, the cell death levels of A549 and PANC-1 cells treated with various concentrations of compound 106 and carboplatin at a constant dose ratio were measured, and the combination index (CI) values were determined.
# [6] = tested on: A549 cells; assay: Chou-Talalay synergism assay in A549 cells; format: cell-based, human; details: compound 106 (80-240 μM) with carboplatin (80-240 μM), constant ratio, 48 hours
# Method: as §2, with “The synergistic effect between compound 106 and carboplatin or ABT-737 on cell viability was determined by Chou-Talalay median dose effect assay.” left out, “Different combinations of drugs at a fixed ratio higher or lower than their IC50 values were added to cells.” left out
# as §3
# [7] = biological target: Bax (Homo sapiens, UniProt Q07812); details: non-canonical BH3 interaction site; cited from earlier work
# Chain of Bax (Q07812 whole entry, species assumed): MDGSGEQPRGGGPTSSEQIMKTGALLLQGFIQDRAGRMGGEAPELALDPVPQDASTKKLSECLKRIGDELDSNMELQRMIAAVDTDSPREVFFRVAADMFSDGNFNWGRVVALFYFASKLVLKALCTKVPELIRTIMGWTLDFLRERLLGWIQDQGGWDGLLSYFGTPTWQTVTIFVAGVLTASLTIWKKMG
compound,measurement,setting,value
CN(C)CC[C@H](CSc1ccccc1)Nc1ccc(S(=O)(=O)NC(=O)c2ccc(N3CCN(Cc4ccccc4-c4ccc(Cl)cc4)CC3)cc2)cc1[N+](=O)[O-] [ABT-737],binding affinity,[1],bind with high affinity
"CC(C)CN1CC(OCc2cccnc2)CN(C(=O)Cc2ccc3c(c2)OCO3)CC1=O (stereo not drawn) [ZINC14531256, 4-(1,3-benzodioxol-5-ylacetyl)-1-isobutyl-6-(3-pyridinylmethoxy)-1,4-diazepan-2-one]",rank by activity to induce Bax-dependent apoptosis,[2],6
"COc1ccccc1N1CCN(Cn2nc(-c3ccc(F)cc3)n(CC3CCCO3)c2=S)CC1 (stereo not drawn) [ZINC16076241, 5-(4-fluorophenyl)-2-[[4-(2-methoxyphenyl)piperazin-1-yl]methyl]-4-(oxolan-2-ylmethyl)-1,2,4-triazole-3-thione]",rank by activity to induce Bax-dependent apoptosis,[2],5
"CCn1nc(C)c(CN2CCCC(N3CCN(c4ccc(OC)cc4)CC3)C2)c1C (stereo not drawn) [ZINC20110124, 1-{1-[(1-ethyl-3,5-dimethyl-1H-pyrazol-4-yl)methyl]-3-piperidinyl}-4-(4-methoxyphenyl)piperazine]",rank by activity to induce Bax-dependent apoptosis,[2],2
"COc1ccccc1-c1nc2cc(N)cc(C(=O)NC3CCCN(Cc4ccccc4)C3)c2n1C (stereo not drawn) [ZINC 12150973, 5-amino-N-(1-benzyl-3-piperidinyl)-2-(2-methoxyphenyl)-1-methyl-1H-benzimidazole-7-carboxamide]",rank by activity to induce Bax-dependent apoptosis,[2],4
"CSc1ccc(C2N=C3NCN(Cc4cccnc4)CN3c3nc4ccccc4n32)cc1 (stereo not drawn) [ZINC 13638227, 6-(4-(methylthio)phenyl)-2-(pyridin-3-ylmethyl)-2,3,4,6-tetrahydro-1H-benzo[4,5]imidazo[1,2-a][1,3,5]triazino[1,2-c][1,3,5]triazine]",rank by activity to induce Bax-dependent apoptosis,[2],3
"N.N.O=C([O-])C1(C(=O)[O-])CCC1.[Pt+2] [carboplatin, cis-Diammine (1,1-cyclobutanedicarboxylato)platinum(II)]","cell death, Bax expressing versus Bax lacking HCT116 cells",[3],Lack of Bax expression in HCT116 cells did not affect killing activities
same,"cell death, reduced Bax expression versus control shRNA",[4],Decrease in Bax expression did not affect killing activities
"COc1cccc(Cn2nc(C(=O)N3CCCC(O)C3)c3c2CCN(Cc2ccc(C)c(C)c2)C3)c1 (stereo not drawn) [compound 106, 1-{[5-(3,4-dimethylbenzyl)-1-(3-methoxybenzyl)-4,5,6,7-tetrahydro-1H-pyrazolo[4,3-c]pyridin-3-yl]carbonyl}-3-piperidinol]",combination index (CI),[5],smaller than 1
same,cytotoxicity dependent on Bax but not on Bak (test of the 46 candidate agents),"[2]; MEF cell lines re-expressing only Bax or Bak, and Bax−/−Bak−/− MEFs",exhibited the highest Bax- and dose-dependent cytotoxicity
same,rank by activity to induce Bax-dependent apoptosis,[2],1
same,combination index (CI),[6],smaller than 1
CC[C@]1(O)C[C@H]2CN(CCc3c([nH]c4ccccc34)[C@@](C(=O)OC)(c3cc4c(cc3OC)N(C=O)[C@H]3[C@@](O)(C(=O)OC)[C@H](OC(C)=O)[C@]5(CC)C=CCN6CC[C@]43[C@@H]65)C2)C1 [vincristine],"cell death, Bax expressing versus Bax lacking HCT116 cells",[3],Lack of Bax expression in HCT116 cells did not affect killing activities
same,"cell death, reduced Bax expression versus control shRNA",[4],Decrease in Bax expression did not affect killing activities
BAM7,Bax binding and activation,[7],directly binds Bax and activates Bax by triggering Bax oligomerization
